Assay results from paper PMC10539329, “NLRP6 potentiates PI3K/AKT signalling by promoting autophagic degradation of p85α to drive tumorigenesis” (Nature Communications, 2023).

Key:
recombinant NLRP6 = target: T1, recombinant NLRP6 (Homo sapiens, UniProt P59044); experiment: Biolayer interferometry (BLI) binding of peptides to recombinant NLRP6; conditions: 30 °C, PBS with 0.01% Tween-20
T1 construct: DNA encoding full-length NLRP6 was codon optimized; His (N); MBP (N); made in house; host or cells: E. coli (DE3)
T1 sequence (P59044 1-892): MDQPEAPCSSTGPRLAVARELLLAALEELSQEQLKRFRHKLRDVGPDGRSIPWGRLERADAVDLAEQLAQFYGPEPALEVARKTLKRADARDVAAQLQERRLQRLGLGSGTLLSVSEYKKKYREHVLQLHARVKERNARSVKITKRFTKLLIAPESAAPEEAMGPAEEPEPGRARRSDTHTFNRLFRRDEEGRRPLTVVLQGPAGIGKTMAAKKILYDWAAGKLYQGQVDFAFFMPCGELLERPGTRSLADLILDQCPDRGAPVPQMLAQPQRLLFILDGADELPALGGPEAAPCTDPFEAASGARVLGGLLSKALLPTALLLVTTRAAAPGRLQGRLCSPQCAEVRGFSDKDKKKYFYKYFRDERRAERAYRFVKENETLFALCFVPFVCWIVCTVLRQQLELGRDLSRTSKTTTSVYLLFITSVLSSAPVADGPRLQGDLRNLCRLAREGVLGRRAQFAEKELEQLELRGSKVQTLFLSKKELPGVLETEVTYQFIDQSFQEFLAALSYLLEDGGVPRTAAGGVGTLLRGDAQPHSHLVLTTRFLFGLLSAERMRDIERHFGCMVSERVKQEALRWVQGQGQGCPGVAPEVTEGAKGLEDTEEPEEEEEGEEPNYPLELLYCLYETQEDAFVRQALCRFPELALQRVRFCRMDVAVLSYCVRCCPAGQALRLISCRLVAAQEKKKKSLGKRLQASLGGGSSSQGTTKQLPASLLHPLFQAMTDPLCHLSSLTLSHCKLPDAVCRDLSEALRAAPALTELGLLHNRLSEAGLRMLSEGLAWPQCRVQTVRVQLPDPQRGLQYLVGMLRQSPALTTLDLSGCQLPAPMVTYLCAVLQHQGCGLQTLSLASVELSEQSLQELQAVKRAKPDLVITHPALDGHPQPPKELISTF
Procedure: DNA encoding full-length NLRP6 was codon optimized and chemically synthesized by Genewiz (Soochow, China). The DNA sequence was subcloned into NdeI-XhoI sites of a pDB-His-MBP vector (kindly given by Pro. Chenggui Han, China Agricultural University, Beijing, China). Recombinant NLRP6 protein was expressed and purified following previous reports, with slight modifications. Briefly, the protein was expressed in E. coli (DE3) at 16 °C with 0.5 mM IPTG induction overnight. Then, the protein was purified by Ni affinity and gel filtration chromatography. The p85α WT and p85α mutant sequences were chemically synthesized and subcloned into BamHI-XhoI sites of a pGEX-6P-1 plasmid by GenScript (Nanjing, China). The E. coli (DE3) transformed with the plasmids were grown in LB medium at 37 °C. The culture medium was supplemented with 0.5 mM IPTG followed by incubation at 16 °C for 16–18 h. […] The protein extinction coefficient was calculated by ProtParam, and the protein concentration was determined by the ultraviolet spectrophotometry method.
Eleven α-helical peptides were synthesized (Supplementary Data 7). […] The interaction between the peptides and NLRP6 was determined by BLI using an Octet Red 96 instrument (FortéBio, CA, USA). […] Responses (nanometre shift) were calculated using data that were double reference subtracted using reference wells and nonspecific binding of the biosensor to the analyte. […]

[1] = tested on: bovine serum albumin (BSA); experiment: ELISA, binding of HRP-conjugated peptide to BSA (control); conditions: HRP-conjugated peptide on BSA, 1 h, absorbance 450 nm
Procedure: The 96-well plate was coated with bovine serum albumin (BSA) or purified NLRP6. HRP-conjugated PepC or HRP-conjugated Pep9 was incubated with BSA or NLRP6 for 1 h, and the unbound peptide was washed away. The HRP substrate was added, and the absorbance was detected at 450 nm. For the competitive ELISA, the 96-well plate was coated with purified p85α. The binding of NLRP6 to p85α competed with 10 μM PepC or 5 μM, 10 μM, 20 μM Pep9 for 1 h.

SAEGYQYRALYD [Pep1, peptide found on the p85α SH3 domain; selected as the control named PepC]
binding to NLRP6 (in words) (recombinant NLRP6): did not interact with NLRP6
ELISA value ([1]; replicate 1): 0.10
ELISA value ([1]; replicate 2): 0.15
ELISA value ([1]; replicate 3): 0.12
